Experimental data from patent publication EP4644396A1 (Visionpharma (Nantong) Co., Ltd, priority 2022, dated 2024).
pIC50: −log10 of the molar value.

Tests used:
[1] = molecular target: T1, human TLR7 (Homo sapiens, UniProt Q9NYK1); assay: HEK-Blue hTLR7 SEAP reporter gene inhibition assay; type: cell-based; settings: hTLR7 HEK-Blue cells, TLR7 ligand Gardiquimod 10 µM, 20 hours, SEAP by Quanti-blue; class symbols; read-out: HEK-Blue hTLR7 IC50
T1 sequence (Q9NYK1 27-1049): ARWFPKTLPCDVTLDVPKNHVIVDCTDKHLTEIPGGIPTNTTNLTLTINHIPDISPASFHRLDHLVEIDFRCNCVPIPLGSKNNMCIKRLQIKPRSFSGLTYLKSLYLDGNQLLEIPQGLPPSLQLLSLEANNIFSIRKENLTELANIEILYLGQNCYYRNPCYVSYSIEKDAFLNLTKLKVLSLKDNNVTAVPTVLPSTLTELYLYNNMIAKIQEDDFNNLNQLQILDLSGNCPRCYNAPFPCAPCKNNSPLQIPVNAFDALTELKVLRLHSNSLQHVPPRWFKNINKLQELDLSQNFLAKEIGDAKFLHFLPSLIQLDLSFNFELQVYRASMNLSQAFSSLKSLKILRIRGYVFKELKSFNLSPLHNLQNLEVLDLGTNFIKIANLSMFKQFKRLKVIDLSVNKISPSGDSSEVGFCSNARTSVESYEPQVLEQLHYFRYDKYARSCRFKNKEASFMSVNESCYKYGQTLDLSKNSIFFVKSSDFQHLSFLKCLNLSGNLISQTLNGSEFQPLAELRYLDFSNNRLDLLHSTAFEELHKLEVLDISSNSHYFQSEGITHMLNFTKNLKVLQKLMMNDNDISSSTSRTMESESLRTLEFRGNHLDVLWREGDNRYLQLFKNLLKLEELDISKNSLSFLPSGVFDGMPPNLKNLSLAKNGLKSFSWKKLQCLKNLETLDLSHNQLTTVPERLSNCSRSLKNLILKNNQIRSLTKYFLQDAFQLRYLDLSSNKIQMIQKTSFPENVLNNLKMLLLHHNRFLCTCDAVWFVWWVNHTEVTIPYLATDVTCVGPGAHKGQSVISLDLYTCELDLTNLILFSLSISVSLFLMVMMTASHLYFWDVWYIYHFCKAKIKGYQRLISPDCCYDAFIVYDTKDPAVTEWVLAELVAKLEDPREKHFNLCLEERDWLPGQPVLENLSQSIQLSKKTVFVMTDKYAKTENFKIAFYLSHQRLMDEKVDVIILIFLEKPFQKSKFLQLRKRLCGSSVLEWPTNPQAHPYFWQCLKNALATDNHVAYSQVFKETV
Experimental: (§1) HEK-Blue cells with stable expression of human TLR7 or TLR8 were used in the evaluation of inhibitory activity of compounds in the present invention against TLR7 or TLR8, by using its ability to induce the SEAP reporting gene under the control of the fusion of IFN-β minimum promoters into five NF-κB and ap-1 binding sites, as follows: hTLR7 HEK-Blue cells (Invivogen, 80, 000 cells per well) or hTLR8 HEK-Blue cells (60, 000 cells per well) were added to a 96-well cell culture plate. A solution of the testing compounds were added to each well, with the final concentration of tested compounds in the medium ranged from 0.001 to 36 µM and the culture was incubated for 15 minutes. M5049 was used as positive controls in the testing.
(§2) Then a TLR7 ligand (Gardiquimod, purchased from MedChemExpress, with final concentration of ligand in cell culture medium kept at 10 µM) or a TLR8 ligand (purchased from MedChemExpress with final concentration in cell culture media at 10 µM) and the culture was incubated for 20 hours. According to the manufacturer's instructions, a HEK-Blue reagent Quanti-blue (Invivogen) was used to detect the SEAP levels in cell cultures. The half […] concentration or IC50 was calculated by using GraphPad Prism. […] Table 1: Activities of examples in this invention to hTLR7/8 in HEK-Blue Cells

[2] = molecular target: T2, human TLR8 (Homo sapiens, UniProt Q9NR97); assay: HEK-Blue hTLR8 SEAP reporter gene inhibition assay; type: cell-based; settings: hTLR8 HEK-Blue cells, TLR8 ligand 10 µM, 20 hours, SEAP by Quanti-blue; class symbols; read-out: HEK-Blue hTLR8 IC50
T2 construct: expressed in transfected cells
T2 sequence (Q9NR97 27-1041): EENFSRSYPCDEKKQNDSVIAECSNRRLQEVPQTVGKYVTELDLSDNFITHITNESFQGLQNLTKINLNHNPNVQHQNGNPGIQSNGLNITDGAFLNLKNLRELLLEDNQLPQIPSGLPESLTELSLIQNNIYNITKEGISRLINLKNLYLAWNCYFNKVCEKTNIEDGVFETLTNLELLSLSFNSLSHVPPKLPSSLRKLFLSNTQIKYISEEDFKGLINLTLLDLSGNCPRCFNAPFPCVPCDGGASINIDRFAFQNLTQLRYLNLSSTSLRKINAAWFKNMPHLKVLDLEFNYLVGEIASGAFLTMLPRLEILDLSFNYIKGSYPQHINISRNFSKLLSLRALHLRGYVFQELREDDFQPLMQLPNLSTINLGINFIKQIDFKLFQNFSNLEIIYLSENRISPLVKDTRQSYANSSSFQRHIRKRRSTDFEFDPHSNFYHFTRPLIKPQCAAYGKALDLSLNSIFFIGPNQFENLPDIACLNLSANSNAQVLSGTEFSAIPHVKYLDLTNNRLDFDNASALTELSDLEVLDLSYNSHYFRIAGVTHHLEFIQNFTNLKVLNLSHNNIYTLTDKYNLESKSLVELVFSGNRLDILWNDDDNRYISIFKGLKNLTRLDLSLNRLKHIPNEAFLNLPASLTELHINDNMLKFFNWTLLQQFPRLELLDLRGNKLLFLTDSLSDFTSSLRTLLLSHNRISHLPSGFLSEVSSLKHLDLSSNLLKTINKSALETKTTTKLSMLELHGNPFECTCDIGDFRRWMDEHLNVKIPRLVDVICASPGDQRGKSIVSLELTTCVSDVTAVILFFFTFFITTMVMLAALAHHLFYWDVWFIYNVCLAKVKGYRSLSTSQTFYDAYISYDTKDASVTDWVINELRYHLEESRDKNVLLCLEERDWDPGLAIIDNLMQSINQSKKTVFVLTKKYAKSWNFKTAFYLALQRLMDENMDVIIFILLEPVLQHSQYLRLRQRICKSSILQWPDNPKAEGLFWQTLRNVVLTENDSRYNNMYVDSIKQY
Experimental: as §1, §2

Molecule | pIC50 [1] | pIC50 [2]
3-((4R,9S)-2-(7-cyano-3-fluoropyrazolo[1,5-a]pyridin-4-yl)-4,9-dimethyl-1,2,3,4,9,10-hexahydropyrido[3',4':3,4]pyrazolo[1,5-a]pyrazin-8(7H)-yl)cyclobutane-1-carboxamide [Example I-164] | > 7.30 | < 7.00
3-Fluoro-4-((4R,9S)-8-(2-((R)-3-fluoropyrrolidin-1-yl)-2-oxoethyl)-4,9-dimethyl-3,4,7,8,9,10-hexahydropyrido[3',4':3,4]pyrazolo[1,5-a]pyrazin-2(1H)-yl)pyrazolo[1,5-a]pyridine-7-carbonitrile [Example I-149] | > 7.30 | < 7.00
3-Fluoro-4-((4R,9S)-8-(2-((S)-3-fluoropyrrolidin-1-yl)-2-oxoethyl)-4,9-dimethyl-3,4,7,8,9,10-hexahydropyrido[3',4':3,4]pyrazolo[1,5-a]pyrazin-2(1H)-yl)pyrazolo[1,5-a]pyridine-7-carbonitrile [Example I-153] | > 7.30 | < 7.00
4-((4R,9S)-4,9-dimethyl-8-(2-(4-methylpiperazin-1-yl)-2-oxoethyl)-3,4,7,8,9,10-hexahydropyrido[3',4':3,4]pyrazolo[1,5-a]pyrazin-2(1H)-yl)-3-fluoropyrazolo[1,5-a]pyridine-7-carbonitrile [Example I-128] | > 7.30 | > 7.00
4-((4R,9S)-8-(D-prolyl)-4,9-dimethyl-3,4,7,8,9,10-hexahydropyrido [3',4':3,4] pyrazolo [1,5-a]pyrazin-2(1H)-yl)-3-fluoropyrazolo[1,5-a]pyridine-7-carbonitrile [Example I-120] | < 7.30 | > 7.00
4-((4R,9S)-8-(cyanomethyl)-4,9-dimethyl-3,4,7,8,9,10-hexahydropyrido[3',4':3,4] pyrazolo[1,5-a]pyrazin-2(1H)-yl)-3-fluoropyrazolo[1,5-a]pyridine-7-carbonitrile [Example I-124] | > 7.30 | > 7.00
CC1Cc2nn3c(c2CN1)CN(c1ccc(C#N)n2ncc(F)c12)C[C@H]3C (single isomer, unassigned) [Example I-11a] | > 7.30 | > 7.00
CC1Cc2nn3c(c2CN1)CN(c1ccc(C#N)n2ncc(F)c12)C[C@H]3C (single isomer, unassigned) [Example I-11b] | > 7.30 | > 7.00
C[C@@H]1CN(c2ccc(C#N)n3ncc(F)c23)Cc2c3c(nn21)CC(N)CC3 (single isomer, unassigned) [Example I-20a] | > 7.30 | > 7.00
C[C@@H]1CN(c2ccc(C#N)n3ncc(F)c23)Cc2c3c(nn21)CC(N)CC3 (single isomer, unassigned) [Example I-20b] | > 7.30 | > 7.00
CC1Cc2c(nn3c2CN(c2ccc(C#N)n4ncc(F)c24)C[C@H]3C)C(C)N1 (single isomer, unassigned) [Example I-59b] | > 7.30 | > 7.00
C[C@@H]1CN(c2ccc(C#N)n3ncc(F)c23)Cc2c3c(nn21)CC(C)(N)CC3 (single isomer, unassigned) [Example I-71a] | > 7.30 | > 7.00
C[C@@H]1CN(c2ccc(C#N)n3ncc(F)c23)Cc2c3c(nn21)CC(C)(N)CC3 (single isomer, unassigned) [Example I-71b] | < 7.30 | > 7.00
C[C@@H]1CN(c2ccc(C#N)n3ncc(F)c23)Cc2c3c(nn21)CCC(C)(N)C3 (single isomer, unassigned) [Example I-80a] | < 7.30 | < 7.00
C[C@@H]1CN(c2ccc(C#N)n3ncc(F)c23)Cc2c3c(nn21)CCC(C)(N)C3 (single isomer, unassigned) [Example I-80b] | < 7.30 | < 7.00
CC1Cc2c(nn3c2CN(c2ccc(C#N)n4ncc(F)c24)C[C@H]3C)C(C)N1 (single isomer, unassigned) [Example I-88a] | > 7.30 | > 7.00
CC1Cc2c(nn3c2CN(c2ccc(C#N)n4ncc(F)c24)C[C@H]3C)C(C)N1 (single isomer, unassigned) [Example I-88b] | > 7.30 | < 7.00
C[C@@H]1CN(c2ccc(C#N)n3ncc(F)c23)Cc2c3c(nn21)CCNC3 [Example I-2, (R)-3-fluoro-4-(7-methyl-1,3,4,7,8,10-hexahydropyrido[4',3':3,4]pyrazolo[1,5-a]pyrazin-9(2H)-yl)pyrazolo[1,5-a]pyridine-7-carbonitrile] | > 7.30 | > 7.00
C[C@@H]1CN(c2ccc(C#N)n3ncc(F)c23)Cc2c3c(nn21)CNCC3 [Example I-5, (R)-3-fluoro-4-(4-methyl-3,4,7,8,9,10-hexahydropyrido[3',4':3,4]pyrazolo[1,5-a]pyrazin-2(1H)-yl)pyrazolo[1,5-a]pyridine-7-carbonitrile] | > 7.30 | > 7.00
CC1Cc2nn3c(c2CN1)CN(c1ccc(C#N)n2ncc(F)c12)C[C@H]3C (stereo partly drawn) [Example I-11, 4-((7R)-3,7-dimethyl-1,3,4,7,8,10-hexahydropyrido[4',3':3,4]pyrazolo[1,5-a]pyrazin-9(2H)-yl)-3-fluoropyrazolo[1,5-a]pyridine-7-carbonitrile] | > 7.30 | > 7.00
CC1CNCc2c1nn1c2CN(c2ccc(C#N)n3ncc(F)c23)C[C@H]1C (stereo partly drawn) [Example I-12, 4-((7R)-4,7-dimethyl-1,3,4,7,8,10-hexahydropyrido[4',3':3,4]pyrazolo[1,5-a]pyrazin-9(2H)-yl)-3-fluoropyrazolo[1,5-a]pyridine-7-carbonitrile] | > 7.30 | > 7.00
C[C@@H]1CN(c2ccc(C#N)n3ncc(F)c23)Cc2c3c(nn21)[C@@H](C)NCC3 [Example I-21, 4-((4R,7R)-4,7-dimethyl-3,4,7,8,9,10-hexahydropyrido[3',4':3,4]pyrazolo[1,5-a]pyrazin-2(1H)-yl)-3-fluoropyrazolo[1,5-a]pyridine-7-carbonitrile] | > 7.30 | > 7.00
